Measured values as given in patent publication US9045415B2, “Targeting of EWS-FLI1 as anti-tumor therapy” (Georgetown University, priority 2006, dated 2015).
pIC50, pKd: −log10 of the molar value. Where “and” joins values, the source holds several entries; their conditions need not be identical. Identical values can stand only once. Entries after “also recorded” stand apart in the source; their conditions may differ. Like-named read-outs stand apart in the source and are kept apart here.

Legend:
recombinant EWS-FLI1 = molecular target: T1, recombinant EWS-FLI1 (Homo sapiens, UniProt Q01543+Q01844); assay: Surface plasmon resonance (Biacore) binding to EWS-FLI1
T1 sequence (Q01543 1-452): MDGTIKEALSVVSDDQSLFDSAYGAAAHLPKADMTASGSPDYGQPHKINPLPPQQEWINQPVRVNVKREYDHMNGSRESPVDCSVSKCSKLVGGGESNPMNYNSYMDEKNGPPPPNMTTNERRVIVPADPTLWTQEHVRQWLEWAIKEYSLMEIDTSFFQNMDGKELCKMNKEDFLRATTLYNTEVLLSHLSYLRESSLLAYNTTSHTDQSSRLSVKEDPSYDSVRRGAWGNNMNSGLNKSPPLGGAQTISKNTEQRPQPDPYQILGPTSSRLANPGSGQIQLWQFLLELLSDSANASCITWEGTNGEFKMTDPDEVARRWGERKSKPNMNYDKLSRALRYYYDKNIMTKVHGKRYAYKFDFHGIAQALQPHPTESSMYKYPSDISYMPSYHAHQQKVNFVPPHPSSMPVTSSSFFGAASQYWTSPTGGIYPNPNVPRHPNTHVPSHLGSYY
T1 sequence (Q01844 1-656): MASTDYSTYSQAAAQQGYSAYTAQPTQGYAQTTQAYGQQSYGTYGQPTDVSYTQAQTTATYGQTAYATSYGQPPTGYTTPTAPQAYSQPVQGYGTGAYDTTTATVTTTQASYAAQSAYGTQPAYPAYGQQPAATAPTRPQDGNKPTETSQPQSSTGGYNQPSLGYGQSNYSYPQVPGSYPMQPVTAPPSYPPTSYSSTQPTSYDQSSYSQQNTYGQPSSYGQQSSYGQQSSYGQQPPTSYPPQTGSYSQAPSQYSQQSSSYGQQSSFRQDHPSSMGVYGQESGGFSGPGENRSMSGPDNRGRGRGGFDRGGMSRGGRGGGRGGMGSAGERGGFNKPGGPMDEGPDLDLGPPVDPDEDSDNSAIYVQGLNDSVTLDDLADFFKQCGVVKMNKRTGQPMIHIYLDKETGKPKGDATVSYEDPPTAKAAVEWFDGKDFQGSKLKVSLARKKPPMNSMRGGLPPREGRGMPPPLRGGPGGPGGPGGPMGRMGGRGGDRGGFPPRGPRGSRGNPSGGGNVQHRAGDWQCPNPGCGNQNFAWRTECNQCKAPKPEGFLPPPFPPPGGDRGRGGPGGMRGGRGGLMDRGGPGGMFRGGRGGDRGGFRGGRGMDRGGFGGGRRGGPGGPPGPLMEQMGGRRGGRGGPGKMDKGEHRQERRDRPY
Procedure: Antp is conjugated to the amino terminal of all peptides used in these studies. Recombinant EWS-FLI1 (MW 55 kDa) was covalently linked to a CM5 chip at a density of 1200 RU, and E9RP (MW 4 kDa) was evaluated for binding. The E9RP analyte concentrations ranged from 0.03-30 μM, and all are shown in duplicate. E9RP bound to EWS-FLI1 with a KD of 4.0 μM.
An assay that will identify whether a peptide can disrupt RHA from interacting with EWS-FLI1 was developed. The Biacore device is a biosensor that utilizes surface plasmon resonance (SPR) to measure the strength of molecular interactions. SPR is the sensitive measurement of […] light based upon alterations of surface characteristics that change with molecules binding to a surface. The Biacore device combines SPR with a microfluidic system.
The KD of E9RP binding to EWS-FLI1 was calculated to be 4.0 μM (FIG. 4).
A surface plasmon resonance assay using the Biacore T100 was established with EWS-FLI1, prepared in our laboratory as previously published (Uren, A., Tcherkasskaya, O. & Toretsky, J. A. Recombinant EWS-FLI1 oncoprotein activates transcription. Biochemistry 43, 13579-13589 (2004)). DNA oligonucleotides were used to quality control the proper conformation of EWS-FLI1 on the surface of a CM5 chip. Small molecules obtained from the Developmental Therapeutics Program of the National Cancer Institute, NIH (http://dtp.nci.nih.gov/branches/dscb/repo_open.html) were prioritized based upon their molecular weight and solubility. An initial screening of molecules was performed at 1 or 10 μM compound, based on solubility. We used a model that compares the actual binding maximum (actual RU) with the theoretical binding maximum (RUtheor). […] Hits (RUactual to RUtheor of 0.7-2.0) were then reviewed by a team of medicinal chemists and those with structural potentials were selected for further study. Selected molecules were tested in vitro in a solution coimmunoprecipitation assay using recombinant EWS-FLI1 and GST-RHA (647-1075).

RHA binding to EWS-FLI1 = assay: Solution immunoprecipitation of GST-RHA with recombinant EWS-FLI1; parameters: species or system human; conditions: for binding of GST-RHA (647-1075) to full-length recombinant EWS-FLI1: cell-free assay
Procedure: E9RP is the peptide region of RHA (E9R; SEQ ID NO: 29) fused to the Penetratin peptide (from the Antennapedia homeodomain; SEQ ID NO: 34). Immunoprecipitation of GST-RHA using recombinant EWS-FLI1 bound to a FLI1 antibody. […] E9RP is the sequence of aa 823-832 of human RHA that were synthesized.
(§1) In FIG. 13A, recombinant EWS-FLI1 was treated with NSC635437 for 30 minutes. GST-RHA (630-1020) was added and the complexes were then precipitated with antibody to EWS-FLI1 and Protein G beads. Resolved complexes showing the immunoprecipitated complex control without compound are in lanes 3 (0.1% DMSO) and 5 (0.01% DMSO). […] ESFT TC32 (◯) and neuroblastoma SK-N-AS (▪) were grown for 72 hours in the continuous presence of NSC635437. Cells were incubated in MTT reagent for 4 hours and the dried precipitate was dissolved isopropanol and the absorbance read at 570 nm. Each cell line was standardized to the growth of the DMSO control.
Protein lysates and immunoprecipitations were performed as previously published (Uren et al (2005)). Recombinant GST-RHA (647-1075) was prepared from crude bacterial extracts without further purification.
Reagents were developed to block RHA binding to EWS-FLI1 since RHA is necessary for optimal EWS-FLI1 activity. The E9R peptide corresponds to amino acids 823 to 832, located in the proximal HA2 region of RHA (FIG. 29A). A cell-free protein interaction assay was developed to test whether E9R peptide inhibits RHA binding to EWS-FLI1. […] It was determined whether disrupted EWS-FLI1/RHA binding inhibited cell growth.

TC32 cells = assay: Monolayer cell growth (MTT or WST), TC32; assay type: cell-based; conditions: for pIC50: Homo sapiens, TC-32, 168 h, seven days in culture, read-out: IC50, TC32 cells growing in monolayer
Procedure: as §1
FIG. 30 provides data to show E9R peptide prevents EWS-FLI1 binding to RHA with specific detrimental effects upon ESFT growth and transformation. […] Scale bar equals 20 μm. […] Only expression of EGFP-E9R in TC71 reduced anchorage independent growth. […] Scale bar equals 20 μm.
FIG. 33 provides data showing YK-4-279 is potent and specific inhibitor of ESFT. […] Cell number was measured by MTT or WST reduction after seven days in culture. […] FIG. 33D cell lines expressing EWS-FLI1 compared to non-EWS-FLI1 malignant cell lines following 3 days in culture to establish the IC50 using WST assay. […] Graph plots level of fluorescence in treated divided by untreated lysate. […] Scale bar equals 200 μm.

[1] = FIG. 24 experiment, read-out: KD
[2] = SPR, EWS-FLI1 immobilized on CM5 chip, read-out: KD of binding to EWS-FLI1

SMILES | pKd (recombinant EWS-FLI1; [1]) | pKd (recombinant EWS-FLI1; [2]) | RUactual:RUtheor (recombinant EWS-FLI1; library screening, single concentration) | RHA binding to EWS-FLI1 in solution binding assay (RHA binding to EWS-FLI1; 10 μM) | complex formation compared to DMSO matched controls (RHA binding to EWS-FLI1; 10 μM and 1 μM, GST-RHA (630-1020)) | binding of GST-RHA (647-1075) to full-length recombinant EWS-FLI1 (RHA binding to EWS-FLI1) | cell growth (MTT) (TC32 cells; 72 hours continuous presence) | pIC50 (TC32 cells)
O=C(CC1(O)C(=O)Nc2c(Cl)ccc(Cl)c21)c1ccc(Cl)cc1 (stereo not drawn) [NSC635437, 4,7-Dichloro-3-[2-(4-chlorophenyl)-2-oxoethyl]-3-hydroxyl-1,3-dihydro-2H-indol-2-one] | 5.92 and 5.69 | 5.63 and 5.70 | 0.9 | block the binding of RHA to EWS-FLI1 | decreased complex formation | reduced the direct binding | specifically cytotoxic to ESFT cells; also recorded: reduces ESFT | 4.70
COc1ccc(C(=O)CC2(O)C(=O)Nc3c(Cl)ccc(Cl)c32)cc1 (stereo not drawn) [YK-4-279, 4,7-Dichloro-3-hydroxy-3-[2-(4-methoxyphenyl)-2-oxoethyl]-1,3-dihydro-2H-indol-2-one] | 5.34 | 5.02 |  |  |  | significantly reduced the protein-protein interaction |  | 6.05
